Patent publication US7022707B2, “Piperazine derivatives” (Hoffman-La Roche Inc., priority 2000, dated 2006)
Where a name gives a salt, the structure may show the parent alone. Read-outs that look alike come from different tables or passages of the source.

Tests used:
human 5-HT2B receptors = target: T1, human 5-HT2B receptors (Homo sapiens, UniProt P41595); assay: Binding to 5-HT2B receptor, [3H]-5-HT, Method (b)
T1 construct: expressed in transfected cells; host or cells: CHO cell line
Protocol: (§1) The binding of compounds of formula (I) to serotonin receptors was determined in vitro by standard methods. The preparations were investigated in accordance with the assays given below.
Method (b): For the binding to the 5-HT2B receptor, the 5-HT2B receptors were radiolabeled with [^3H]-5-HT. The affinity of the compounds for human 5-HT2B receptors in a CHO cell line was determined according to the procedure of K. Schmuck, C. Ullmer, P. Engels and H. Lubbert, FEBS Lett., 1994, 342, 85–90.
(§2) The Ki value is definied as an inhibition constance and is determined from the IC50 value as described in Cheng, Yung-Chi and Prusoff, W. H., Biochem. Pharmacol., 1973, 22(23), 3099–108.

5-HT2C receptor [1] = target: T2, 5-HT2C receptor (Homo sapiens, UniProt P28335); assay: Functional activity, FLIPR calcium assay, CHO cells expressing human 5-HT2C; format: cell-based; parameters: expressed in transfected cells; host or cells: CHO cells; conditions: for h5-HT2c Relative Efficacy: maximum fluorescent signal relative to 10 μM 5-HT (defined as 100%)
T2 sequence (P28335 33-458): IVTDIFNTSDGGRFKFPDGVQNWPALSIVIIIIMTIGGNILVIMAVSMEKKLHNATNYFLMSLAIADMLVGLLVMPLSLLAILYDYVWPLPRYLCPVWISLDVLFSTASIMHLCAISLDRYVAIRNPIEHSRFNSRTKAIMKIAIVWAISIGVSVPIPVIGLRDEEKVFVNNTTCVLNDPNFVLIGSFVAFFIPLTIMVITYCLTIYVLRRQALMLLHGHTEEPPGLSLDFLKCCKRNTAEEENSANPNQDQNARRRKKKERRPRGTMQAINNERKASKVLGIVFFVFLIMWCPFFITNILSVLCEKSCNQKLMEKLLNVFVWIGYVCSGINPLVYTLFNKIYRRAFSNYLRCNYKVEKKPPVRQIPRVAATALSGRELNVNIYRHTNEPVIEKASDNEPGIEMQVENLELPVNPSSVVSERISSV
Protocol: (§3) The functional activity of compounds of formula (I) was assayed using a Fluorimetric Imaging Pate reader (FLIPR). CHO cells expressing the human 5-HT2C or human 5-HT2A receptors were counted and plated into standard 96 well microtitre plates on the day before testing to give a confluent monolayer. The cells were then dye loaded with the calcium sensitive dye, Fluo-3-AM. Unincorporated dye was removed using an automated cell washer to leave a total volume of 100 μL/well of assay buffer (Hanks balanced salt solution containing 20 mM Hepes and 2.5 mM probenecid). The drug (dissolved in 50 µL of the assay buffer) was added at a rate of 70 μL/sec to each well of the FLIPR 96 well plate during fluorescence measurements. The measurements were taken at 1 sec intervals and the maximum fluorescent signal was measured (approx 10–15 secs after drug addition) and compared with the response produced by 10 μM 5-HT (defined as 100%) to which it was expressed as a percentage response (relative efficacy). Dose response curves were constructed using Graphpad Prism (Graph Software Inc.).

5-HT2A receptor [2] = target: T3, 5-HT2A receptor (Homo sapiens, UniProt P28223); assay: Functional activity, FLIPR calcium assay, CHO cells expressing human 5-HT2A; format: cell-based; parameters: expressed in transfected cells; host or cells: CHO cells; conditions: for h5-HT2A Relative Efficacy: maximum fluorescent signal relative to 10 μM 5-HT (defined as 100%)
T3 sequence (P28223 whole entry): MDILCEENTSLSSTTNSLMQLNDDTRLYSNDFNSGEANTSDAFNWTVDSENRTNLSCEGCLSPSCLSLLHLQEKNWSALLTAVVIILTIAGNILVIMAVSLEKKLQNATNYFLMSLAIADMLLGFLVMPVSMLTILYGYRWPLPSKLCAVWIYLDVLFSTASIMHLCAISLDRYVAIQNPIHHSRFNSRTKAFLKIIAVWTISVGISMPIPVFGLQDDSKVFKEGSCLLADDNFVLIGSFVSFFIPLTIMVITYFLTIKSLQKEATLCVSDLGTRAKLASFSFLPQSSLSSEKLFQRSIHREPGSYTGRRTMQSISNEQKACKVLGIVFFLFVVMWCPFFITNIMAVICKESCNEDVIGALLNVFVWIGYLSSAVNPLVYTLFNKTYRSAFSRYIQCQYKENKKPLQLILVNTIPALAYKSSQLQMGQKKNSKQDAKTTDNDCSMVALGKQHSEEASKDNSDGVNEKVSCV
Protocol: as §3

5-HT2C receptor [3] = target: T2, 5-HT2C receptor; assay: Binding to 5-HT2C receptor, [3H]-5-HT, Method (a); parameters: expressed in transfected cells; host or cells: CHO cell line
Protocol: as §1
Method (a): For the binding to the 5-HT2C receptor, the 5-HT2C receptors were radiolabeled with [^3H]-5-HT. The affinity of the compounds for 5-HT2C receptors in a CHO cell line was determined according to the procedure of D. Hoyer, G. Engel and H. O. Kalkman, European J. Pharmacol., 1985, 118, 13–23.
as §2

5-HT2A receptor [4] = target: T3, 5-HT2A receptor; assay: Binding to 5-HT2A receptor, [125I]-DOI, Method (c); parameters: expressed in transfected cells; host or cells: CHO cell line
Protocol: as §1
Method (c): For the binding to the 5-HT2A receptor, the 5-HT2A receptors were radiolabeled with [^125I]-DOI. The affinity of the compounds for 5-HT2A receptors in a CHO cell line was determined according to the procedure of D. J. McKenna and S. J. Peroutka, J. Neurosci., 1989, 9, 3482–90.
as §2

rats = conditions: literature; cited from earlier work
[5] = test system: human volunteers and obese subjects; conditions: literature, cited from earlier work
[6] = Method (b), [3H]-5-HT, human 5-HT2B in CHO cell line, Ki calculated from IC50, read-out: Ki (2B)
[7] = FLIPR, CHO cells, Fluo-3-AM, read-out: h5-HT2c EC50
[8] = FLIPR, CHO cells, Fluo-3-AM, read-out: h5-HT2A EC50
[9] = Method (a), [3H]-5-HT, CHO cell line, Ki calculated from IC50 (Cheng-Prusoff), read-out: Ki (2C)
[10] = Method (c), [125I]-DOI, CHO cell line, Ki calculated from IC50, read-out: Ki (2A)

T1 sequence (P41595 whole entry): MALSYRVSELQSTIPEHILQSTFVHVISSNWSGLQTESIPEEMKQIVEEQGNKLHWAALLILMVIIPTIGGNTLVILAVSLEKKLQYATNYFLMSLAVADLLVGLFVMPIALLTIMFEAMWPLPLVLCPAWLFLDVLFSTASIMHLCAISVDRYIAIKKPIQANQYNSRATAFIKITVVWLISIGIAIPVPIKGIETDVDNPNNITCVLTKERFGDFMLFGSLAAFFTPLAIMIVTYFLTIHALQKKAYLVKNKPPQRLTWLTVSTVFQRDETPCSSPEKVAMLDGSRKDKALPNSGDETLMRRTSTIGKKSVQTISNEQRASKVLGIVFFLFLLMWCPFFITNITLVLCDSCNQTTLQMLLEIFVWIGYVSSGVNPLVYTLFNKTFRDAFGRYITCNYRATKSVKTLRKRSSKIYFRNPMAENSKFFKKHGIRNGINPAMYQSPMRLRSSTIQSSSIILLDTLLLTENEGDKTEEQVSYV

`CCCOc1cc(F)c(COC(=O)N2CCNC[C@H]2C)c(F)c1.O=C(O)/C=C/C(=O)O` showed a melting point of 193.9 to 194 °C.

For `C[C@@H]1CNCCN1C(=O)OCc1ccc(OC(F)F)cc1.O=C(O)/C=C/C(=O)O`, the melting point was 123.9 to 124.5 °C.

In the case of `Cl.O=C(OCc1ccc(Br)cc1F)N1CCNCC1`, the melting point is reported as 209.5 to 209.6 °C.

`CCOc1ccc(F)c(COC(=O)N2[C@H](C)CNC[C@@H]2C)c1.O=C(O)/C=C/C(=O)O` gave a melting point of 142.9 to 143.3 °C.

For `CCCOc1ccc(F)c(COC(=O)N2CCNCC2)c1.O=C(O)/C=C/C(=O)O`, the melting point was 155.9 to 156.1 °C.

In the case of `CCCOc1ccc(F)c(COC(=O)N2CCNC[C@H]2C)c1.O=C(O)/C=C/C(=O)O`, the melting point is reported as 162.6 to 162.7 °C.

Molecule `CCCCOc1ccc(F)c(COC(=O)N2CCNCC2)c1.O=C(O)/C=C/C(=O)O` has a melting point of 142.4 to 143.5 °C.

With `CCCCOc1ccc(F)c(COC(=O)N2CCNC[C@H]2C)c1.O=C(O)/C=C/C(=O)O` the melting point was 171.6 to 171.7 °C.

With `CCCCOc1ccc(F)c(COC(=O)N2[C@H](C)CNC[C@@H]2C)c1.O=C(O)/C=C/C(=O)O` the melting point was 153.2 to 153.5 °C.

For `CC(C)COc1ccc(F)c(COC(=O)N2[C@H](C)CNC[C@@H]2C)c1.O=C(O)/C=C/C(=O)O`, the melting point was 178.6 to 178.7 °C.

Work on `C[C@@H]1CNC[C@H](C)N1C(=O)OCc1c(F)ccc(Br)c1F.Cl` yielded a melting point of 207 to 210 °C.

`Cl.O=C(SCc1ccc(OCc2ccc(F)cc2)cc1)N1CCNCC1` gave a melting point of 169 to 169.5 °C.

For `CCCOc1cc(F)c(COC(=O)N2CCNCC2CC)c(F)c1.O=C(O)/C=C/C(=O)O` (racemic), the melting point was 145 to 165 °C (dec.).

In the case of `Cl.O=C(OCc1ccc(OC(F)F)cc1)N1CCNCC1` [Example 22, Piperazine-1-carboxylic acid 4-difluoromethoxy-benzyl ester hydrochloride], the Ki (human 5-HT2B receptors; [6]) is reported as 4000 nM, the EC50 (5-HT2C receptor [1]; [7]) is reported as 100 nM and the “h5-HT2c Relative Efficacy” value (5-HT2C receptor [1]) is reported as 56%. The EC50 (5-HT2A receptor [2]; [8]) was 220 nM, the “h5-HT2A Relative Efficacy” value (5-HT2A receptor [2]) was 24% and the Ki (5-HT2C receptor [3]; [9]) was 44 nM. The Ki (5-HT2A receptor [4]; [10]) was 44 nM.

With `Cl.O=C(SCc1ccc(OCc2ccccc2)cc1)N1CCNCC1` [Example 32, Piperazine-1-carbothioic acid S-(4-benzyloxy-benzyl) ester hydrochloride] the Ki (human 5-HT2B receptors; [6]) was 370 nM, the EC50 (5-HT2C receptor [1]; [7]) was 38 nM and the “h5-HT2c Relative Efficacy” value (5-HT2C receptor [1]) was 65%. For the same molecule, the EC50 (5-HT2A receptor [2]; [8]) was 560 nM, the “h5-HT2A Relative Efficacy” value (5-HT2A receptor [2]) was 22% and the Ki (5-HT2C receptor [3]; [9]) was 15 nM. For the same molecule, the Ki (5-HT2A receptor [4]; [10]) was 6 nM.

For `CC(C)NC(=O)Oc1ccc(CSC(=O)N2CCNCC2)cc1` [Example 63, S-4-[(2-Propylamino)carbonyl]oxybenzyl piperazine-1-thiocarboxylate hydrochloride], the Ki (human 5-HT2B receptors) was 8300 nM, the EC50 (5-HT2C receptor [1]) was 33 nM and the “h5-HT2c Relative Efficacy” value (5-HT2C receptor [1]) was 74%. The EC50 (5-HT2A receptor [2]) was 370 nM, the “h5-HT2A Relative Efficacy” value (5-HT2A receptor [2]) was 25% and the Ki (5-HT2C receptor [3]) was 33 nM. For the same molecule, the Ki (5-HT2A receptor [4]) was 550 nM.

With `Cc1noc(C)c1COc1cc(F)c(COC(=O)N2[C@H](C)CNC[C@@H]2C)c(F)c1` [Example 121, cis-2,6-Dimethyl-piperazine-1-carboxylic acid 4-(3,5-dimethyl-isoxazol-4-ylmethoxy)-2,6-difluoro-benzyl esterfumarate] the Ki (human 5-HT2B receptors; [6]) was 8400 nM, the EC50 (5-HT2C receptor [1]; [7]) was 22 nM and the “h5-HT2c Relative Efficacy” value (5-HT2C receptor [1]) was 91%. For the same molecule, the EC50 (5-HT2A receptor [2]; [8]) was 550 nM, the “h5-HT2A Relative Efficacy” value (5-HT2A receptor [2]) was 11% and the Ki (5-HT2C receptor [3]; [9]) was 15 nM. The Ki (5-HT2A receptor [4]; [10]) was 200 nM.

For `Clc1cccc(N2CCNCC2)c1` [mCPP, m-chlorophenylpiperazine], the “food intake in rats” value (rats) is given as “reduce food intake”, the “appetite and body weight” value ([5]; obese male and female subjects, subchronic treatment for a 14 day period) is given as “decreased the appetite and body weight” and the food intake ([5]; single dose, female volunteers) is given as “decreased food intake”.
